# Key:
# c-Kit = c-Kit (Homo sapiens (Human), UniProt P10721); test: Kinome-wide profiling; type: biochemical; conditions: read-out: % Residual Activity (mean)
# CDK2/cyclin A = CDK2/cyclin A (Homo sapiens (Human), UniProt P24941); test: Kinome-wide profiling; type: biochemical; conditions: read-out: % Residual Activity (mean)
# IKKb/IKBKB = IKKb/IKBKB (Homo sapiens (Human), UniProt O14920); test: Kinome-wide profiling; type: biochemical; conditions: read-out: % Residual Activity (mean)
# MSK1/RPS6KA5 = MSK1/RPS6KA5 (Homo sapiens (Human), UniProt O75582); test: Kinome-wide profiling; type: biochemical; conditions: read-out: % Residual Activity (mean)
# EPHB4 = EPHB4 (Homo sapiens (Human), UniProt P54760); test: Kinome-wide profiling; type: biochemical; conditions: read-out: % Residual Activity (mean)
# PKN2/PRK2 = PKN2/PRK2 (Homo sapiens (Human), UniProt Q16513); test: Kinome-wide profiling; type: biochemical; conditions: read-out: % Residual Activity (mean)
# SNARK/NUAK2 = SNARK/NUAK2 (Homo sapiens (Human), UniProt Q9H093); test: Kinome-wide profiling; type: biochemical; conditions: read-out: % Residual Activity (mean)
# HIPK3 = HIPK3 (Homo sapiens (Human), UniProt Q9H422); test: Kinome-wide profiling; type: biochemical; conditions: read-out: % Residual Activity (mean)
# CAMK1b = CAMK1b (Homo sapiens (Human), UniProt Q6P2M8); test: Kinome-wide profiling; type: biochemical; conditions: read-out: % Residual Activity (mean)
# NEK3 = NEK3 (Homo sapiens (Human), UniProt P51956); test: Kinome-wide profiling; type: biochemical; conditions: read-out: % Residual Activity (mean)
# MLCK/MYLK = MLCK/MYLK (Homo sapiens (Human), UniProt Q15746); test: Kinome-wide profiling; type: biochemical; conditions: read-out: % Residual Activity (mean)
# MYO3A = MYO3A (Homo sapiens (Human), UniProt Q8NEV4); test: Kinome-wide profiling; type: biochemical; conditions: read-out: % Residual Activity (mean)
# TYK1/LTK = TYK1/LTK (Homo sapiens (Human), UniProt P29376); test: Kinome-wide profiling; type: biochemical; conditions: read-out: % Residual Activity (mean)
# ITK = ITK (Homo sapiens (Human), UniProt Q08881); test: Kinome-wide profiling; type: biochemical; conditions: read-out: % Residual Activity (mean)
# DDR1 = DDR1 (Homo sapiens (Human), UniProt Q08345); test: Kinome-wide profiling; type: biochemical; conditions: read-out: % Residual Activity (mean)
# TBK1 = TBK1 (Homo sapiens (Human), UniProt Q9UHD2); test: Kinome-wide profiling; type: biochemical; conditions: read-out: % Residual Activity (mean)
# DYRK3 = DYRK3 (Homo sapiens (Human), UniProt O43781); test: Kinome-wide profiling; type: biochemical; conditions: read-out: % Residual Activity (mean)
# MSSK1/STK23 = MSSK1/STK23 (Homo sapiens (Human), UniProt Q9UPE1); test: Kinome-wide profiling; type: biochemical; conditions: read-out: % Residual Activity (mean)
# STK32B/YANK2 = STK32B/YANK2 (Homo sapiens (Human), UniProt Q9NY57); test: Kinome-wide profiling; type: biochemical; conditions: read-out: % Residual Activity (mean)
# ABL2/ARG = ABL2/ARG (Homo sapiens (Human), UniProt P42684); test: Kinome-wide profiling; type: biochemical; conditions: read-out: % Residual Activity (mean)
# AURORA C = AURORA C (Homo sapiens (Human), UniProt Q9UQB9); test: Kinome-wide profiling; type: biochemical; conditions: read-out: % Residual Activity (mean)
# EGFR = EGFR (Homo sapiens (Human), UniProt P00533); test: Kinome-wide profiling; type: biochemical; conditions: read-out: % Residual Activity (mean)
# c-MET = c-MET (Homo sapiens (Human), UniProt P08581); test: Kinome-wide profiling; type: biochemical; conditions: read-out: % Residual Activity (mean)
# CAMK1d = CAMK1d (Homo sapiens (Human), UniProt Q8IU85); test: Kinome-wide profiling; type: biochemical; conditions: read-out: % Residual Activity (mean)
# CAMK1d, sequence (Q8IU85 whole entry): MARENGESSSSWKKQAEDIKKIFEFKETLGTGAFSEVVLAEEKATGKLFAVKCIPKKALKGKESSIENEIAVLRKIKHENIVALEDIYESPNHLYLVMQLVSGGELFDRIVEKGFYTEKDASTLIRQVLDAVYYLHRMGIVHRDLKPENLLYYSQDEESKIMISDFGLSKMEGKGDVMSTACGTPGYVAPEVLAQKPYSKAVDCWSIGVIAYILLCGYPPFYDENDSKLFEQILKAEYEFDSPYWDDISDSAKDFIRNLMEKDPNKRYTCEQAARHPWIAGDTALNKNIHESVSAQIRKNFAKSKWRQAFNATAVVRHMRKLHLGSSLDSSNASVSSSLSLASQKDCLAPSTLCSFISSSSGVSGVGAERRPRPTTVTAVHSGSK
# VRK2 = VRK2 (Homo sapiens (Human), UniProt Q86Y07); test: Kinome-wide profiling; type: biochemical; conditions: read-out: % Residual Activity (mean)
# VRK2, sequence (Q86Y07 whole entry): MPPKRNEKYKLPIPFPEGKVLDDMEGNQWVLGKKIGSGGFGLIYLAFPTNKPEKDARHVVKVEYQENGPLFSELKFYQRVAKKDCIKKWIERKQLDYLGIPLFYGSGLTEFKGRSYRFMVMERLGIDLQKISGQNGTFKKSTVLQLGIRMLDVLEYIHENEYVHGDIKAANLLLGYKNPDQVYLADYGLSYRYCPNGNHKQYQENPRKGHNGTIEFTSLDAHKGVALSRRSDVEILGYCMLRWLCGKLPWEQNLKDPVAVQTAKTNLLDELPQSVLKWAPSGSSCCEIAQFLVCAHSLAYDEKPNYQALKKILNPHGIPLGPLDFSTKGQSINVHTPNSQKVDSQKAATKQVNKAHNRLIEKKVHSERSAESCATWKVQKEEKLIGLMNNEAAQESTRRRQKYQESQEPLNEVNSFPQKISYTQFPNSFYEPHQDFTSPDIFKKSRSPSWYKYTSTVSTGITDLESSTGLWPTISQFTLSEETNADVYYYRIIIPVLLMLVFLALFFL
# CDC7/DBF4 = CDC7/DBF4 (Homo sapiens (Human), UniProt O00311); test: Kinome-wide profiling; type: biochemical; conditions: read-out: % Residual Activity (mean)
# CDC7/DBF4, sequence (O00311 whole entry): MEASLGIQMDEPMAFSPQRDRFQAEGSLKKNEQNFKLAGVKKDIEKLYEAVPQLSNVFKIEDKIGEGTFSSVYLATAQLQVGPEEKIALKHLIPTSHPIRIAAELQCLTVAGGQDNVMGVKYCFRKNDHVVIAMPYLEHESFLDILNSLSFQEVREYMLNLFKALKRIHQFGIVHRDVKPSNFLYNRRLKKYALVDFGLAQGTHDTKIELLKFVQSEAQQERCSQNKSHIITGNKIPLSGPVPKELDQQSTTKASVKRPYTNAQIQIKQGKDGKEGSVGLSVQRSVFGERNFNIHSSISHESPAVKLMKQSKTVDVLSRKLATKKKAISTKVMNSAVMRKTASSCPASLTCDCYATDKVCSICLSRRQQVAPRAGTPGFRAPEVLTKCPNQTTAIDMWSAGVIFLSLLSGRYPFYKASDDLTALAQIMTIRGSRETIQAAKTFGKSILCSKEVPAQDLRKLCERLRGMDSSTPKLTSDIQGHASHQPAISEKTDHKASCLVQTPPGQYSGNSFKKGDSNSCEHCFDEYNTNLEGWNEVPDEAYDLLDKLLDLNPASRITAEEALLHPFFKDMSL
# CDC7/DBF4, sequence (Q9UBU7 whole entry partner): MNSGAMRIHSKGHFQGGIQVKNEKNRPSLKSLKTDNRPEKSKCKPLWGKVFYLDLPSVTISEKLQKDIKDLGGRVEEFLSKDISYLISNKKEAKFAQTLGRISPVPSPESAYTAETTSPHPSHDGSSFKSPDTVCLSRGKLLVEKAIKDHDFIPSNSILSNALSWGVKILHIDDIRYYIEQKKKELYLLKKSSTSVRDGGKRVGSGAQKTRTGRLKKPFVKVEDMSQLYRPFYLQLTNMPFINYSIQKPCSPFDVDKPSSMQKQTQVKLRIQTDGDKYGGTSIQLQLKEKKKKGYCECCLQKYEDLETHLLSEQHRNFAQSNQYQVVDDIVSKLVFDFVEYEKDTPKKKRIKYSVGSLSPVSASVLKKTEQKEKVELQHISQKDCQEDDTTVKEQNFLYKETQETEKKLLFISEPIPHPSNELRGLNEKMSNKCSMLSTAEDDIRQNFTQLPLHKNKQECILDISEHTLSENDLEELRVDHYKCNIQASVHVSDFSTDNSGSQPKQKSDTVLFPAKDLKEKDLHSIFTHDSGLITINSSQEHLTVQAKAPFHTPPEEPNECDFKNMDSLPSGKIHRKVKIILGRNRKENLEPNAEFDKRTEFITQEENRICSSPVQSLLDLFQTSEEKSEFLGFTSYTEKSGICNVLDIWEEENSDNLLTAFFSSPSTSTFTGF
# c-MER = c-MER (Homo sapiens (Human), UniProt Q12866); test: Kinome-wide profiling; type: biochemical; conditions: read-out: % Residual Activity (mean)
# GSK3a = GSK3a (Homo sapiens (Human), UniProt P49840); test: Kinome-wide profiling; type: biochemical; conditions: read-out: % Residual Activity (mean)
# IRR/INSRR = IRR/INSRR (Homo sapiens (Human), UniProt P14616); test: Kinome-wide profiling; type: biochemical; conditions: read-out: % Residual Activity (mean)
# STK25/YSK1 = STK25/YSK1 (Homo sapiens (Human), UniProt O00506); test: Kinome-wide profiling; type: biochemical; conditions: read-out: % Residual Activity (mean)
# TYK2 = TYK2 (Homo sapiens (Human), UniProt P29597); test: Kinome-wide profiling; type: biochemical; conditions: read-out: % Residual Activity (mean)
# HCK = HCK (Homo sapiens (Human), UniProt P08631); test: Kinome-wide profiling; type: biochemical; conditions: read-out: % Residual Activity (mean)
# SK-Br3 and HCC1954 cells = test: Combined treatment with trastuzumab; type: cell-based; conditions: 40 nM Example 53 with trastuzumab titration, 72 hours
# Excerpt: The effect of combined administration was investigated in SK-Br3 and HCC1954 cells.
# NEK1 = NEK1 (Homo sapiens (Human), UniProt Q96PY6); test: Kinome-wide profiling; type: biochemical; conditions: read-out: % Residual Activity (mean)
# JAK1 = JAK1 (Homo sapiens (Human), UniProt P23458); test: Kinome-wide profiling; type: biochemical; conditions: read-out: % Residual Activity (mean)
# JAK1, sequence (P23458 whole entry): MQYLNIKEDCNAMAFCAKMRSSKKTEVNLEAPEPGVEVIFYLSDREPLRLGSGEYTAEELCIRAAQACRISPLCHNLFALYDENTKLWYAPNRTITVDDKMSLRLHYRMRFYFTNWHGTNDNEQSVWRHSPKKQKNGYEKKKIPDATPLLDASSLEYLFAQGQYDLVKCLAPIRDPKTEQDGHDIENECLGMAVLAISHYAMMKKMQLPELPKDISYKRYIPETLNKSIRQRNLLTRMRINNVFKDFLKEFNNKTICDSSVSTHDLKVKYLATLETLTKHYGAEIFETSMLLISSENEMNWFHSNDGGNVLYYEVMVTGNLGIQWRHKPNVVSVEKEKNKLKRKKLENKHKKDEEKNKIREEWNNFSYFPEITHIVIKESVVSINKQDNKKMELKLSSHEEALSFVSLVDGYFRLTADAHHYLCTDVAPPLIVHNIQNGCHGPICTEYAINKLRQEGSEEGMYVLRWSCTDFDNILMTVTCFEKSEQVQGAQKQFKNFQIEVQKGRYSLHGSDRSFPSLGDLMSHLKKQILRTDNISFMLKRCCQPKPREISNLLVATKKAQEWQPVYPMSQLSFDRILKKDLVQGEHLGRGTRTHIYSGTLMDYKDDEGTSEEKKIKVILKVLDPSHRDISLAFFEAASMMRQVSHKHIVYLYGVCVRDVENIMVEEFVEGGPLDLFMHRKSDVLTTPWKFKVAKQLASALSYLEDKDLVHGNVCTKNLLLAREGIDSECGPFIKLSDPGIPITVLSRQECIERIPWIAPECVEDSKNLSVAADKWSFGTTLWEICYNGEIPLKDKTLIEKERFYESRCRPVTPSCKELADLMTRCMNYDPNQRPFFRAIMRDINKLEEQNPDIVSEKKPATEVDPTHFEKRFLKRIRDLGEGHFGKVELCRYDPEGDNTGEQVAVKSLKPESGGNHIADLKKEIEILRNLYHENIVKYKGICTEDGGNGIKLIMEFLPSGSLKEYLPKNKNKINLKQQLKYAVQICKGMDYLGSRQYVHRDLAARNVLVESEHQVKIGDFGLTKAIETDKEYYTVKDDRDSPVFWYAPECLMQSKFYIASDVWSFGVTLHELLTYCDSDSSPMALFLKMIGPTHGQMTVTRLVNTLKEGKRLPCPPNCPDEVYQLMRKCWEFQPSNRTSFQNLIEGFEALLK
# BRSK2 = BRSK2 (Homo sapiens (Human), UniProt Q8IWQ3); test: Kinome-wide profiling; type: biochemical; conditions: read-out: % Residual Activity (mean)
# BRSK2, sequence (Q8IWQ3 whole entry): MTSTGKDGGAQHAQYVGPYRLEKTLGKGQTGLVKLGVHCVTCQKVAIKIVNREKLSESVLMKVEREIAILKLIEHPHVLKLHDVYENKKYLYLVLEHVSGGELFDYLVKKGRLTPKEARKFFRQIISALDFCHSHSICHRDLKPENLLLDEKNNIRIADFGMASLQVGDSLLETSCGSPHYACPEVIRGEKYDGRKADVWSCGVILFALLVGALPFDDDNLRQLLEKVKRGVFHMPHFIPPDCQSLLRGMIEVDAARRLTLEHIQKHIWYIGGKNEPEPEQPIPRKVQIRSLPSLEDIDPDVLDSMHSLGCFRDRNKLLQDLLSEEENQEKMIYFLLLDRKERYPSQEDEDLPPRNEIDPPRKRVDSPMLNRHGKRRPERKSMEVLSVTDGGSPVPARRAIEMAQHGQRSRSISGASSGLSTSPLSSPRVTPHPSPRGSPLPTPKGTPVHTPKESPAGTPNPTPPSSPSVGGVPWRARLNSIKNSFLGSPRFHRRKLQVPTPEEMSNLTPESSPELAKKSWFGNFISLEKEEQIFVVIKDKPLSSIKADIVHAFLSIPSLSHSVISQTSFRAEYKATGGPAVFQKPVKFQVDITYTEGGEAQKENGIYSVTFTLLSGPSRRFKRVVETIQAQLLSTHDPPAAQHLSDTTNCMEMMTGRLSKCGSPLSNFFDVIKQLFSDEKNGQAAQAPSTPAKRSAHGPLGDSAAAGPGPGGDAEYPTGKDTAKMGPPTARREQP
# CDK1/cyclin B = CDK1/cyclin B (Homo sapiens (Human), UniProt P06493); test: Kinome-wide profiling; type: biochemical; conditions: read-out: % Residual Activity (mean)
# DMPK2 = DMPK2 (Homo sapiens (Human), UniProt Q6DT37); test: Kinome-wide profiling; type: biochemical; conditions: read-out: % Residual Activity (mean)
# c-Kit, sequence (P10721 26-976): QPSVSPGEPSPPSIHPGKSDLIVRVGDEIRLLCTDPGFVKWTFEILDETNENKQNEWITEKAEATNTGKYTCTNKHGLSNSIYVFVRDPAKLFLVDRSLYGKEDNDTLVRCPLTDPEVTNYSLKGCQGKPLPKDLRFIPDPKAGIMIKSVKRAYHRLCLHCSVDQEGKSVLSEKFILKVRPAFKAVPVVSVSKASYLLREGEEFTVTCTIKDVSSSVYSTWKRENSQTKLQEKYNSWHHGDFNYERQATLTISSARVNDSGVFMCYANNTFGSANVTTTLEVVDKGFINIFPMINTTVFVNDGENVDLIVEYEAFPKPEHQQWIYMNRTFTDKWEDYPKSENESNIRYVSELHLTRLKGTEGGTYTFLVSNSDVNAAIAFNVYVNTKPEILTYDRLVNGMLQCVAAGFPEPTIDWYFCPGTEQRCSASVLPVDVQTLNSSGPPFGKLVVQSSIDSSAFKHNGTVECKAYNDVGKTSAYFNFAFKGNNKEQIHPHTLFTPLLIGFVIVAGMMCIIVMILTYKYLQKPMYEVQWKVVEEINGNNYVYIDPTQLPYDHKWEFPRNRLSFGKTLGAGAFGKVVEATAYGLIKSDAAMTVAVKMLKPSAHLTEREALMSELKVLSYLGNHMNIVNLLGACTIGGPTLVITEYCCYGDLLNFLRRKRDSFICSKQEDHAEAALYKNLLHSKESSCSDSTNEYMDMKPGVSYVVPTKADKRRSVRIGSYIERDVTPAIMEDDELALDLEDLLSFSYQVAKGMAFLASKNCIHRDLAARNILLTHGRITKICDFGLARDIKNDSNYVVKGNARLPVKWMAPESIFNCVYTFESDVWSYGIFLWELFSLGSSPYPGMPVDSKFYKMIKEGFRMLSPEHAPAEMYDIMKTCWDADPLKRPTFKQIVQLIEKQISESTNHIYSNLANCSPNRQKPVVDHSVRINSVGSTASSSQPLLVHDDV
smiles,measurement,setting,value
"CCn1cnc2c(NCc3ccc(-c4ccccn4)nc3)nc(-c3ccc(N)nc3)nc21 [Example 53, N-([2,2′-bipyridin]-5-ylmethyl)-2-(6-aminopyridin-3-yl)-9-ethyl-9H-purin-6-amine]",remaining activity at 10 µM,c-Kit,14.2%
same,remaining activity at 10 µM,CDK2/cyclin A,1.19%
same,remaining activity at 10 µM,IKKb/IKBKB,83.7%
same,remaining activity at 10 µM,MSK1/RPS6KA5,80.5%
same,remaining activity at 10 µM,EPHB4,23.2%
same,remaining activity at 10 µM,PKN2/PRK2,85.8%
same,remaining activity at 10 µM,SNARK/NUAK2,59%
same,remaining activity at 10 µM,HIPK3,94.1%
same,remaining activity at 10 µM,CAMK1b,66.8%
same,remaining activity at 10 µM,NEK3,86.6%
same,remaining activity at 10 µM,MLCK/MYLK,63.4%
same,remaining activity at 10 µM,MYO3A,71.3%
same,remaining activity at 10 µM,TYK1/LTK,73.6%
same,remaining activity at 10 µM,ITK,81.7%
same,remaining activity at 10 µM,DDR1,50.2%
same,remaining activity at 10 µM,TBK1,55%
same,remaining activity at 10 µM,DYRK3,58.6%
same,remaining activity at 10 µM,MSSK1/STK23,82.8%
same,remaining activity at 10 µM,STK32B/YANK2,57.6%
same,remaining activity at 10 µM,ABL2/ARG,56.1%
same,remaining activity at 10 µM,AURORA C,25.5%
same,remaining activity at 10 µM,EGFR,83.7%
same,remaining activity at 10 µM,c-MET,96.4%
same,remaining activity at 10 µM,CAMK1d,58%
same,remaining activity at 10 µM,VRK2,96.6%
same,remaining activity at 10 µM,CDC7/DBF4,98.2%
same,remaining activity at 10 µM,c-MER,71%
same,remaining activity at 10 µM,GSK3a,10.6%
same,remaining activity at 10 µM,IRR/INSRR,31.1%
same,remaining activity at 10 µM,STK25/YSK1,23.1%
same,remaining activity at 10 µM,TYK2,90.7%
same,remaining activity at 10 µM,HCK,46.5%
same,anti-proliferative activity of trastuzumab on co-treatment,SK-Br3 and HCC1954 cells,slightly enhanced
same,anti-proliferative activity of trastuzumab on co-treatment,SK-Br3 and HCC1954 cells; listed as Compound 53,slightly increased
same,remaining activity at 10 µM,NEK1,92.3%
same,remaining activity at 10 µM,JAK1,92.1%
same,remaining activity at 10 µM,BRSK2,97.5%
same,remaining activity at 10 µM,CDK1/cyclin B,2.06%
same,remaining activity at 10 µM,DMPK2,92.4%

# — US20250101023A1, “HETEROARYL DERIVATIVE AND USES THEREOF” (IUCF-HYU (INDUSTRY-UNIVERSITY COOPERATION FOUNDATION …, priority 2022, published 2025)
